Tested on: MHCC97H cells
Test: Assay for inhibiting the proliferation of MHCC97H cells (CCK-8)
Format: cell-based
Conditions: Homo sapiens
Procedure, shortened: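 Cells seeded in 96-well plates overnight, then exposed 72 h to 9 three-fold dilutions of compound (0.25% DMSO final). Viability by CCK-8 (1-2 h at 37° C., OD 450 nm), survival normalized to untreated and cell-free blanks; IC50 by curve fitting.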

Compound	IC50 [nM]
C=CCn1cc(C(=O)Nc2ccc(Oc3ccnc4cc(OC)c5c(c34)OCCO5)c(F)c2)c(=O)n(-c2ccc(F)cc2)c1=O [Example 100, N-(3-fluoro-4-((5-methoxy-2,3-dihydro-[1,4]dioxino[2,3-f]quinolin-10-yl)oxy)phenyl)-3-(4-fluorophenyl)-1-allyl-2,4-dioxo-1,2,3,4-tetrahydropyrimidine-5-carboxamide]	≤ 50
COc1cc2nccc(Oc3ccc(NC(=O)c4cn(CCF)c(=O)n(-c5ccc(F)cc5)c4=O)cc3F)c2c2c1OCCO2 [Example 101, N-(3-fluoro-4-((5-methoxy-2,3-dihydro-[1,4]dioxino[2,3-f]quinolin-10-yl)oxy)phenyl)-3-(4-fluorophenyl)-1-(2-fluoroethyl)-2,4-dioxo-1,2,3,4-tetrahydropyrimidine-5-carboxamide]	≤ 50
CCOc1ccn(-c2ccc(F)cc2)c(=O)c1C(=O)Nc1ccc(Oc2ccnc3cc(OCC4(N)CC4)c4c(c23)OCCO4)c(F)c1 [Example 105, N-(4-((5-((1-aminocyclopropyl)methoxy)-2,3-dihydro-[1,4]dioxino[2,3-f]quinolin-10-yl)oxy)-3-fluorophenyl)-4-ethoxy-1-(4-fluorophenyl)-2-oxo-1,2-dihydropyridine-3-carboxamide]	50 to 200
CC(C)n1cc(C(=O)Nc2ccc(Oc3ccnc4cc(OCC5(N)CC5)c5c(c34)OCCO5)c(F)c2)c(=O)n(-c2ccc(F)cc2)c1=O [Example 106, N-(3-fluoro-4-((5-((1-aminocyclopropyl)methoxy)-2,3-dihydro-[1,4]dioxino[2,3-f]quinolin-1 0-yl)oxy)phenyl)-3-(4-fluorophenyl)-1-isopropyl-2,4-dioxo-1,2,3,4-tetrahydropyrimidine-5-carboxamide]	50 to 200
CCOc1ccn(-c2ccc(C)cc2)c(=O)c1C(=O)Nc1ccc(Oc2ccnc3cc(OC)c4c(c23)OCCO4)c(F)c1 [Example 112, N-(3-fluoro-4-((5-methoxy-2,3-dihydro-[1,4]dioxino[2,3-f]quinolin-10-yl)oxy)phenyl)-2-oxo-4-ethoxy-1-(4-methylphenyl)-1,2-dihydropyridin-3-carboxamide]	200 to 1000
CCOc1ccn(-c2ccc(Cl)cc2)c(=O)c1C(=O)Nc1ccc(Oc2ccnc3cc(OC)c4c(c23)OCCO4)c(F)c1 [Example 113, N-(3-fluoro-4-((5-methoxy-2,3-dihydro-[1,4]dioxino[2,3-f]quinolin-10-yl)oxy)phenyl)-2-oxo-4-ethoxy-1-(4-chlorophenyl)-1,2-dihydropyridin-3-carboxamide]	50 to 200
CCOc1ccn(-c2cccc(F)c2)c(=O)c1C(=O)Nc1ccc(Oc2ccnc3cc(OC)c4c(c23)OCCO4)c(F)c1 [Example 114, N-(3-fluoro-4-((5-methoxy-2,3-dihydro-[1,4]dioxino[2,3-f]quinolin-10-yl)oxy)phenyl)-2-oxo-4-ethoxy-1-(3-fluorophenyl)-1,2-dihydropyridin-3-carboxamide]	50 to 200
CCOc1ccn(-c2ccc(F)cc2)c(=O)c1C(=O)Nc1cc(F)c(Oc2ccnc3cc(OC)c4c(c23)OCCO4)cc1Cl [Example 115, N-(2-chloro-5-fluoro-4-((5-methoxy-2,3-dihydro-[1,4]dioxino[2,3-f]quinolin-10-yl)oxy)phenyl)-4-ethoxy-2-oxo-1-(4-fluorophenyl)-1,2-dihydropyridin-3-carboxamide]	≤ 50
COc1cc2nccc(Oc3cc(Cl)c(NC(=O)c4cn(C)c(=O)n(-c5ccc(F)cc5)c4=O)cc3F)c2c2c1OCCO2 [Example 116, N-(2-chloro-5-fluoro-4-((5-methoxy-2,3-dihydro-[1,4]dioxino[2,3-f]quinolin-10-yl)oxy)phenyl)-3-(4-fluorophenyl)-1-methyl-2,4-dioxo-1,2,3,4-tetrahydropyrimidine-5-carboxamide]	50 to 200
COc1cc2nccc(Oc3cc(C)c(NC(=O)c4cn(C)c(=O)n(-c5ccc(F)cc5)c4=O)cc3F)c2c2c1OCCO2 [Example 177, N-(5-fluoro-4-((5-methoxy-2,3-dihydro-[1,4]dioxino[2,3-f]quinolin-10-yl)oxy)-2-methylphenyl)-3-(4-fluorophenyl)-1-methyl-2,4-dioxo-1,2,3,4-tetrahydropyrimidine-5-carboxamide]	50 to 200
COCCOc1cc2nccc(Oc3cc(C)c(NC(=O)c4cn(C)c(=O)n(-c5ccc(F)cc5)c4=O)cc3F)c2c2c1OCCO2 [Example 179, N-(5-fluoro-4-((5-(2-methoxyethoxy)-2,3-dihydro-[1,4]dioxino[2,3-f]quinolin-10-yl)oxy)-2-methylphenyl)-3-(4-fluorophenyl)-1-methyl-2,4-dioxo-1,2,3,4-tetrahydropyrimidine-5-carboxamide]	≤ 50
CCn1cc(C(=O)Nc2cc(F)c(Oc3ccnc4cc(OCCOC)c5c(c34)OCCO5)cc2C)c(=O)n(-c2ccc(F)cc2)c1=O [Example 180, N-(5-fluoro-4-((5-(2-methoxyethoxy)-2,3-dihydro-[1,4]dioxino[2,3-f]quinolin-10-yl)oxy)-2-methylphenyl)-3-(4-fluorophenyl)-1-ethyl-2,4-dioxo-1,2,3,4-tetrahydropyrimidine-5-carboxamide]	≤ 50
